Measured values as given in patent publication US8476298B2 (Exelixis, Inc., priority 2003, dated 2013).

How the values were obtained:
[1] = target: T1, c-Met (baculovirus expressed human c-Met kinase domain P948-S1343) (Homo sapiens, UniProt P08581); assay: c-Met Luciferase-Coupled Chemiluminescent Kinase assay (LCCA); assay type: biochemical;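 note: kinase activity read as percent ATP left after reaction, by luciferase-luciferin chemiluminescence, with 1 µM ATP and 1 µM poly-EY substrate, 2 h at ambient temperature, 10-point dose-response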
T1 construct: human c-Met kinase domain P948-S1343; host or cells: baculovirus expression

[2] = target: T2, Flt-3 (baculovirus expressed human Flt-3 kinase domain R571-S993) (Homo sapiens, UniProt P36888); assay: biochemical; details: read-out: flt3 IC50;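 note: Luciferase-coupled chemiluminescent kinase assay, activity read as percent ATP left after a 3 h reaction at room temperature, ATP near KM, 10-point dose-response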
T2 construct: human Flt-3 kinase domain R571-S993; host or cells: baculovirus expression
T2 sequence (P36888 571-993): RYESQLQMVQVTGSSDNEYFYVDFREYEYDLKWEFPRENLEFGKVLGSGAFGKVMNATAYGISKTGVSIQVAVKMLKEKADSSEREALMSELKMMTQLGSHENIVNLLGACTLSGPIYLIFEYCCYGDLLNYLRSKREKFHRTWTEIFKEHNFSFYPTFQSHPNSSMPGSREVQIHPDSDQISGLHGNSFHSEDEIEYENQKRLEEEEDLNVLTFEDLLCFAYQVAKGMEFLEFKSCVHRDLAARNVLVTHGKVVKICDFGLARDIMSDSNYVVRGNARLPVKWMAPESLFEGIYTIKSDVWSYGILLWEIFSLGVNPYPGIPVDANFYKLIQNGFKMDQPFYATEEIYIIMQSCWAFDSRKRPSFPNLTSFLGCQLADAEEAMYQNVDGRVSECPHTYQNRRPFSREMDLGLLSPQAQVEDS

[3] = target: T3, KDR (baculovirus expressed human KDR kinase domain D807-V1356) (Homo sapiens, UniProt P35968); assay: biochemical;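 note: Luciferase-coupled chemiluminescent kinase assay, activity read as percent ATP left after 4 h reaction at ambient temperature, ATP near KM, 10-point dose-response in 384-well plates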
T3 construct: human KDR kinase domain D807-V1356; host or cells: baculovirus expression
T3 sequence (P35968 807-1356): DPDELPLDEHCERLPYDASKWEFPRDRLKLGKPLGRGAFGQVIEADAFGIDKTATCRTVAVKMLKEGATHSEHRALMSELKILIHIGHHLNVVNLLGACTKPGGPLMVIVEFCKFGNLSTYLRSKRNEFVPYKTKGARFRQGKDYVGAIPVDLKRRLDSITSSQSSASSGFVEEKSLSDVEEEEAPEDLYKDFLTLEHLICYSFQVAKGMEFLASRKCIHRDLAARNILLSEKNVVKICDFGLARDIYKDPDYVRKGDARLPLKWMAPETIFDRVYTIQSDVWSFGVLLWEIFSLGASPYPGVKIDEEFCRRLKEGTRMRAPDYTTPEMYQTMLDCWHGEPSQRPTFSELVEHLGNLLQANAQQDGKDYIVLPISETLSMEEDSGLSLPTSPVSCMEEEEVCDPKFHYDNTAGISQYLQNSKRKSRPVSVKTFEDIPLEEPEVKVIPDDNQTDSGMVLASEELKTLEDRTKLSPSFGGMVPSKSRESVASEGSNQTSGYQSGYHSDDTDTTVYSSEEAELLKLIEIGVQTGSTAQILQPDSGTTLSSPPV

T1 sequence (P08581 1011-1343 limits assumed): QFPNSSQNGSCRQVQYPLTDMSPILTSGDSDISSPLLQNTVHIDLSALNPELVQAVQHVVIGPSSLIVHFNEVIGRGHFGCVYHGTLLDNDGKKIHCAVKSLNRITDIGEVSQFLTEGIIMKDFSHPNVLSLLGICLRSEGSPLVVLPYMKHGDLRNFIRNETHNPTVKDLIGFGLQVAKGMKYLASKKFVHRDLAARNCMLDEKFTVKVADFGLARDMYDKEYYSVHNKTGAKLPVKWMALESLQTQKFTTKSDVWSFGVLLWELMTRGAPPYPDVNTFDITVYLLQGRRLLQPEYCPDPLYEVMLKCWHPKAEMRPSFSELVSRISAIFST

SMILES	IC50 [1] [nM]	IC50 [2] [nM]	IC50 [3] [nM]
COc1cc2c(Oc3ccc(NC(=O)[C@@]4(C(=O)Nc5ccc(F)cc5)[C@H](C)[C@@H]4C)cc3F)ccnc2cc1OCCCN1CCN(C)CC1 [Example 366, (1r,2R,3S)-N-{3-fluoro-4-[(6-(methyloxy)-7-{[3-(4-methylpiperazin-1-yl)propyl]oxy}quinolin-4-yl)oxy]phenyl}-N′-(4-fluorophenyl)-2,3-dimethylcyclopropane-1,1-dicarboxamide]	< 50	50 to 500	50 to 500
COc1cc2c(Oc3ccc(NC(=O)[C@@]4(C(=O)Nc5ccc(F)cc5)[C@H](C)[C@@H]4C)cc3F)ncnc2cc1OCCCN1CCOCC1 [Example 367, (1r,2R,3S)-N-[3-fluoro-4-({6-(methyloxy)-7-[(3-morpholin-4-ylpropyl)oxy]quinazolin-4-yl}oxy)phenyl]-N′-(4-fluorophenyl)-2,3-dimethylcyclopropane-1,1-dicarboxamide]	50 to 500	50 to 500	< 50
COc1cc2c(Oc3ccc(NC(=O)[C@@]4(C(=O)Nc5ccc(F)cc5)[C@H](C)[C@@H]4C)cc3F)ncnc2cc1OCCCN1CCN(C)CC1 [Example 368, (1r,2R,3S)-N-{3-fluoro-4-[(6-(methyloxy)-7-{[3-(4-methylpiperazin-1-yl)propyl]oxy}quinazolin-4-yl)oxy]phenyl}-N′-(4-fluorophenyl)-2,3-dimethylcyclopropane-1,1-dicarboxamide]	< 50	50 to 500	< 50

Now from value to molecule:

IC50 [1] [nM]	IC50 [2] [nM]	IC50 [3] [nM]	SMILES
< 50	< 50	< 50	COc1cc2c(Oc3ccc(NC(=O)[C@]4(C(=O)Nc5ccc(F)cc5)C[C@@H]4C)cc3F)ccnc2cc1OCCCN1CCNCC1 [Example 364, (1R,2S)-N-[3-fluoro-4-({6-(methyloxy)-7-[(3-piperazin-1-ylpropyl)oxy]quinolin-4-yl}oxy)phenyl]-N′-(4-fluorophenyl)-2-methylcyclopropane-1,1-dicarboxamide]
< 50	50 to 500	50 to 500	COc1cc2c(Oc3ccc(NC(=O)[C@@]4(C(=O)Nc5ccc(F)cc5)[C@H](C)[C@@H]4C)cc3F)ccnc2cc1OCCCN1CCOCC1 [Example 365, (1r,2R,3S)-N-[3-fluoro-4-({6-(methyloxy)-7-[(3-morpholin-4-ylpropyl)oxy]quinolin-4-yl}oxy)phenyl]-N′-(4-fluorophenyl)-2,3-dimethylcyclopropane-1,1-dicarboxamide]
50 to 500	50 to 500	< 50	COc1cc2c(Oc3ccc(NC(=O)C4(C(=O)Nc5ccc(F)cc5)CCC4)cc3F)ncnc2cc1OCCCN1CCOCC1 [Example 369, N-[3-fluoro-4-({6-(methyloxy)-7-[(3-morpholin-4-ylpropyl)oxy]quinazolin-4-yl}oxy)phenyl]-N′-(4-fluorophenyl)cyclobutane-1,1-dicarboxamide]
< 50	50 to 500	< 50	COc1cc2c(Oc3ccc(NC(=O)C4(C(=O)Nc5ccc(F)cc5)[C@H](C)[C@H]4C)cc3F)ccnc2cc1OCCCN1CCOCC1 (stereo partly drawn) [Example 370, (2R,3R)-N-[3-fluoro-4-({6-(methyloxy)-7-[(3-morpholin-4-ylpropyl)oxy]quinolin-4-yl}oxy)phenyl]-N′-(4-fluorophenyl)-2,3-dimethylcyclopropane-1,1-dicarboxamide]
< 50	50 to 500	< 50	CCN(CC)CCCOc1cc2nccc(Oc3ccc(NC(=O)C4(C(=O)Nc5ccc(F)cc5)[C@H](C)[C@H]4C)cc3F)c2cc1OC (stereo partly drawn) [Example 371, (2R,3R)-N-(4-{[7-{[3-(diethylamino)propyl]oxy}-6-(methyloxy)quinolin-4-yl]oxy}-3-fluorophenyl)-N′-(4-fluorophenyl)-2,3-dimethylcyclopropane-1,1-dicarboxamide]
